From US20190119193A1, “COMPOSITION FOR REGULATING PLANT GROWTH, METHOD FOR TREATING PLANTS THEREWITH, AND ACTIVE INGREDIENT THEREOF” (Ivan Aleksandrovich Starikov, priority 2016, published 2019)

Tested on: spring wheat of “Lubava” variety
Test: Field tests of DMOA and DEOA on wheat
Format: in vivo
Details: for Effect on wheat growth, yield and quality (in words): aqueous solutions in the proposed concentrations, field test under stress (abundant rainfalls)
Method: After that DMOA and DEOA were separately dissolved in dimethyl sulfoxide to give solutions of 10 g/L concentration, then water was added to give aqueous solutions of DMOA with the concentrations of 5.5·10^−8 M, 5.5·10^−9 M, 1.8·10^−9 M, 5.5·10^−10 M, 1.8·10^−10 M, 1.8·10^−11 M, and DEOA with the concentrations of 4.8·10^−8 M, 4.8·10^−9 M, […], 4.8·10^−10 M, 1.6·10^−10 M, 1.6·10^−11 M.
The field tests of the obtained aqueous solutions of DMOA and DEOA on spring wheat of “Lubava” variety were carried out. The tests were carried out in agroclimatic zone I, on the experimental field of the Grain Crops Protection Systems Laboratory of the Agricultural Research Center of Federal State Budgetary Scientific Institution “Moscow Research Institute of Agriculture” “Nemchinovka” “(Moscow Region, Odintsovo district, settlement Novoivanovskaya, 2015) according to the method adopted for registration tests of plant growth regulators (Guidelines for conducting registration tests of new forms of fertilizers, bioregulators and plant regulators. Moscow-Vladimir, 2009, p. 104; The method of state variety testing of agricultural crops. Grain, cereal, grain legumes and forage crops. Issue 1, Moscow, 1985, page 269, Issue 2, Moscow, 1989, p. 194; OST 10-108-87; GOST 26212-91; GOST-91).
The soil of the experimental field is sod-podzolic on clay loam mantle.
Tests were conducted starting from Apr. 29 to Jul. 30, 2015. In the first half of the growing period the weather conditions were unfavorable (abundant rainfalls in May and June), which is a significant stress factor.
Control test—without growth regulators treatment.
Area of experimental plots—100 m^2, accounting area—50 m^2. Fourfold replication of the experiments.
Preceding crop was winter wheat. Immediately after the autumn harvesting of winter crops the area was treated with disc harrow to a depth of 10-12 cm. Then, fall plowing to a depth of 18-20 cm by a reverse plow, harrowing, and moisture conservation were carried out.
Before seeding the test crop, the soil was fertilized with nitrogen-phosphorus-potassium fertilizer in a dose of N64P64K64. Date of sowing: Apr. 29, 2015 Seeding rate: 5.0 million of germinated grains per 1 hectare.
Before seeding, all the seeds were treated with “Vincite Forte” fungicide with a consumption rate of 1.0 L per ton of seeds, as well as the aqueous solution of DMOA or DEOA selected for the experiment with a consumption rate of 10 L per ton of seeds (this aqueous solution was directly used as a liquid for treatment) or without a growth regulator, depending on the experiment. The following concentrations of the test solutions were used for treatment: 5.5·10^−8 M, 5.5·10^−9 M and 5.5·10^−10 M of DMOA; 4.8·10^−8 M, 4.8·10^−9 M and 4.8·10^−10 M of DEOA.
At the tillering phase (May 23) the crops were sprayed against weeds with “Linthur” herbicide at a dose of 175.0 g/ha, pesticides “BI-58 Novy” were used against pests at a dose of 0.5 L/ha, and against the leaf-stems diseases the crops were sprayed at the early ear emergence stage (June 20) with “Alto Super” fungicide at a dose of 0.5 L/ha together with aqueous solutions of DMOA or DEOA (or without them). Spraying with aqueous solutions of DMOA or DEOA allows to additionally stimulate plant growth. In this case the dosage of aqueous solutions of DMEA or DEOA was 300 L/ha (these solutions were sprayed directly). Spraying with aqueous solutions of DMEA and DEOA was carried out for all variants, where DMOA and DEOA were used for seed treatment. The concentration of the spraying solution was one-thirtieth of the concentration of the solution previously used for treatment of seeds. Accordingly, for DMOA: 1.8·10^−9 M, 1.8·10^−10 M, 1.8·10^−11 M; and for DEOA: 1.6·10^−9 M, 1.6·10^−10 M, 1.6·10^−11 M.
Harvesting of experimental plots was carried out on July 30, before harvesting test sheaves of 0.25 m^2 of each variant of the experiment were taken for structural analysis. […]

[1] = seeds treated 5.5 · 10^−8M, sprayed 1.8·10^−9 M
[2] = seeds treated 5.5 · 10^−9M, sprayed 1.8·10^−10 M
[3] = seeds treated 5.5 · 10^−10M, sprayed 1.8·10^−11 M
[4] = seeds treated 4.8 · 10^−8M, sprayed 1.6·10^−9 M
[5] = seeds treated 4.8 · 10^−9M, sprayed 1.6·10^−10 M
[6] = seeds treated 4.8 · 10^−10M, sprayed 1.6·10^−11 M

## Sodium salt of dimethyl ester of oxaloacetic acid [DMOA]
  Effect on wheat growth, yield and quality (in words): express ability to stimulate growth, increase yield and quality of wheat
[1]
  1000 grains weight: 46.22 g
  Gluten: 33.64 % dry basis
  Main head length: 8.7 cm
  Number of grains from main head: 36 pcs
  Number of stems: 420 pcs/m^2
  Plant height: 101.5 cm
  Productive tilling capacity: 1.57
  Protein (N 5.7): 14.88 % dry basis
  Starch: 61.54 % dry basis
  Weight of grains from main head: 1.76 g
  Yield: 6.44 t/ha
  Yield, % (comparing to control): 131.9%
[2]
  1000 grains weight: 47.07 g
  Gluten: 34.71 % dry basis
  Main head length: 8.9 cm
  Number of grains from main head: 37 pcs
  Number of stems: 752 pcs/m^2
  Plant height: 105.1 cm
  Productive tilling capacity: 1.21
  Protein (N 5.7): 14.92 % dry basis
  Starch: 61.72 % dry basis
  Weight of grains from main head: 1.79 g
  Yield: 6.49 t/ha
  Yield, % (comparing to control): 133.0%
[3]
  1000 grains weight: 46.51 g
  Gluten: 33.81 % dry basis
  Main head length: 8.8 cm
  Number of grains from main head: 37 pcs
  Number of stems: 396 pcs/m^2
  Plant height: 104.1 cm
  Productive tilling capacity: 1.48
  Protein (N 5.7): 14.73 % dry basis
  Starch: 61.27 % dry basis
  Weight of grains from main head: 1.71 g
  Yield: 6.41 t/ha
  Yield, % (comparing to control): 131.4%

## CCOC(=O)C=C([O-])C(=O)OCC.[Na+] [DEOA, sodium salt of diethyl ester of oxaloacetic acid]
  Effect on wheat growth, yield and quality (in words): express ability to stimulate growth, increase yield and quality of wheat
[4]
  1000 grains weight: 48.15 g
  Gluten: 31.85 % dry basis
  Main head length: 8.6 cm
  Number of grains from main head: 39 pcs
  Number of stems: 612 pcs/m^2
  Plant height: 101.7 cm
  Productive tilling capacity: 1.34
  Protein (N 5.7): 14.88 % dry basis
  Starch: 61.15 % dry basis
  Weight of grains from main head: 1.91 g
  Yield: 5.50 t/ha
  Yield, % (comparing to control): 112.7%
[5]
  1000 grains weight: 46.88 g
  Gluten: 32.91 % dry basis
  Main head length: 9.2 cm
  Number of grains from main head: 41 pcs
  Number of stems: 408 pcs/m^2
  Plant height: 99.4 cm
  Productive tilling capacity: 1.33
  Protein (N 5.7): 14.95 % dry basis
  Starch: 61.43 % dry basis
  Weight of grains from main head: 1.96 g
  Yield: 5.32 t/ha
  Yield, % (comparing to control): 109.0%
[6]
  1000 grains weight: 48.38 g
  Gluten: 31.61 % dry basis
  Main head length: 10.8 cm
  Number of grains from main head: 51 pcs
  Number of stems: 324 pcs/m^2
  Plant height: 104.3 cm
  Productive tilling capacity: 1.69
  Protein (N 5.7): 14.14 % dry basis
  Starch: 61.60 % dry basis
  Weight of grains from main head: 2.65 g
  Yield: 5.00 t/ha
  Yield, % (comparing to control): 102.5%
